From PubChem BioAssay AID2060888 (Molecular Pharmacology Branch, DTP, NCI, 2025)
pIC50: −log10 of the molar value. “And” between values parts separate entries of the source, which are not always exact repeats. Equal values may be shown once.

System: 695427-040-R-J1-PDC complex spheroid viability
Assay: Anticancer human tumor 695427-040-R-J1-PDC patient-derived colon adenocarcinoma cell line growth inhibition [RAS]
Details: for viability, T/C: stronger effect = lower value; active means viability on the fitted dose curve at most 10% of control; inactive means the rest
How it was run: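 Multi-cell-type spheroids: tumor cells plus HUVEC endothelial cells and mesenchymal stem cells. RAS-pathway inhibitors were combined with targeted agents, each dosed in half-log steps down from clinical Cmax, or from 10 microM when Cmax was unknown.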

[1] = curve of first compound, second compound 0.0316 µM
[2] = curve of first compound, second compound 0.1 µM
[3] = curve of first compound, second compound 0.316 µM
[4] = curve of first compound, second compound 1 µM
[5] = second compound 0.0316 µM, first compound 0.0316 µM
[6] = second compound 0.0316 µM, first compound 0.1 µM
[7] = second compound 0.0316 µM, first compound 0.316 µM
[8] = second compound 0.0316 µM, first compound 1 µM
[9] = second compound 0.0316 µM, first compound 3.16 µM
[10] = second compound 0.0316 µM, first compound 10 µM
[11] = second compound 0.1 µM, first compound 0.0316 µM
[12] = second compound 0.1 µM, first compound 0.1 µM
[13] = second compound 0.1 µM, first compound 0.316 µM
[14] = second compound 0.1 µM, first compound 1 µM
[15] = second compound 0.1 µM, first compound 3.16 µM
[16] = second compound 0.1 µM, first compound 10 µM
[17] = second compound 0.316 µM, first compound 0.0316 µM
[18] = second compound 0.316 µM, first compound 0.1 µM
[19] = second compound 0.316 µM, first compound 0.316 µM
[20] = second compound 0.316 µM, first compound 1 µM
[21] = second compound 0.316 µM, first compound 3.16 µM
[22] = second compound 0.316 µM, first compound 10 µM
[23] = second compound 1 µM, first compound 0.0316 µM
[24] = second compound 1 µM, first compound 0.1 µM
[25] = second compound 1 µM, first compound 0.316 µM
[26] = second compound 1 µM, first compound 1 µM
[27] = second compound 1 µM, first compound 3.16 µM
[28] = second compound 1 µM, first compound 10 µM
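Further: viability read after seven days of drug exposure.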
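Wherever viability, T/C is given: 100% = DMSO vehicle control viability.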

CC(C)NCC(C(=O)N1CCN(c2ncnc3c2C(C)CC3O)CC1)c1ccc(Cl)cc1 (stereo unspecified) + CCn1c(-c2cccnc2C(C)OC)c2c3cc(ccc31)N1CCOC(CC(NC(=O)C(C(C)C)N(C)C(=O)C3(F)CCN(C(=O)C#CC(C)(C)N(C)C)CC3)C(=O)N3CCCC(N3)C(=O)OCC(C)(C)C2)C1
< 5.00: pIC50 (curve of first compound, second compound 0.000949 µM) | pIC50 (curve of first compound, second compound 0.003 µM) | pIC50 (curve of first compound, second compound 0.00949 µM) | pIC50 (curve of first compound, second compound 0.03 µM) | pIC50 (curve of first compound, second compound 0.0949 µM) | pIC50 (curve of first compound, second compound 0.3 µM)
inactive: viability, T/C (second compound 0.000949 µM, first compound 0.0316 µM) 86% | viability, T/C (second compound 0.000949 µM, first compound 0.1 µM) 91.1% | viability, T/C (second compound 0.000949 µM, first compound 0.316 µM) 91.7% | viability, T/C (second compound 0.000949 µM, first compound 1 µM) 68.2% | viability, T/C (second compound 0.000949 µM, first compound 3.16 µM) 62.6% | viability, T/C (second compound 0.000949 µM, first compound 10 µM) 60.8% | viability, T/C (second compound 0.003 µM, first compound 0.0316 µM) 103% | viability, T/C (second compound 0.003 µM, first compound 0.1 µM) 91.4% | viability, T/C (second compound 0.003 µM, first compound 0.316 µM) 65.9% | viability, T/C (second compound 0.003 µM, first compound 1 µM) 84.7% | viability, T/C (second compound 0.003 µM, first compound 3.16 µM) 74.7% | viability, T/C (second compound 0.003 µM, first compound 10 µM) 54.6% | viability, T/C (second compound 0.00949 µM, first compound 0.0316 µM) 113% | viability, T/C (second compound 0.00949 µM, first compound 0.1 µM) 89.5% | viability, T/C (second compound 0.00949 µM, first compound 0.316 µM) 59.9% | viability, T/C (second compound 0.00949 µM, first compound 1 µM) 85.2% | viability, T/C (second compound 0.00949 µM, first compound 3.16 µM) 63.4% | viability, T/C (second compound 0.00949 µM, first compound 10 µM) 63.5% | viability, T/C (second compound 0.03 µM, first compound 0.0316 µM) 91.6% | viability, T/C (second compound 0.03 µM, first compound 0.1 µM) 75.3% | viability, T/C (second compound 0.03 µM, first compound 0.316 µM) 81.5% | viability, T/C (second compound 0.03 µM, first compound 1 µM) 83.8% | viability, T/C (second compound 0.03 µM, first compound 3.16 µM) 59.2% | viability, T/C (second compound 0.03 µM, first compound 10 µM) 56.9% | viability, T/C (second compound 0.0949 µM, first compound 0.0316 µM) 88.5% | viability, T/C (second compound 0.0949 µM, first compound 0.1 µM) 88.7% | viability, T/C (second compound 0.0949 µM, first compound 0.316 µM) 72.6% | viability, T/C (second compound 0.0949 µM, first compound 1 µM) 70.8% | viability, T/C (second compound 0.0949 µM, first compound 3.16 µM) 77.1% | viability, T/C (second compound 0.0949 µM, first compound 10 µM) 71.2% | viability, T/C (second compound 0.3 µM, first compound 0.0316 µM) 105% | viability, T/C (second compound 0.3 µM, first compound 0.1 µM) 72.8% | viability, T/C (second compound 0.3 µM, first compound 0.316 µM) 79.8% | viability, T/C (second compound 0.3 µM, first compound 1 µM) 74.2% | viability, T/C (second compound 0.3 µM, first compound 3.16 µM) 57% | viability, T/C (second compound 0.3 µM, first compound 10 µM) 56.2%

CC(Nc1ccc2c(c1)OCCn1cc(N3C(=O)OCC3C(F)F)nc1-2)C(N)=O (stereo unspecified) + C#Cc1c(F)ccc2cc(O)cc(-c3ncc4c(N5CC6CCC(C5)N6)nc(OCC56CCCN5CC(F)C6)nc4c3F)c12
6.37: pIC50 [3]
5.81: pIC50 [1]
> 7.50: pIC50 (curve of first compound, second compound 3.16 µM) | pIC50 (curve of first compound, second compound 10 µM)
6.77: pIC50 [4]
inactive: viability, T/C [5] 78.2% | viability, T/C [6] 69.5% | viability, T/C [7] 58.5% | viability, T/C [8] 52.1% | viability, T/C [9] 47.9% | viability, T/C [10] 40.1% | viability, T/C [11] 77% | viability, T/C [12] 69.7% | viability, T/C [13] 59.6% | viability, T/C [14] 49.9% | viability, T/C [15] 40.4% | viability, T/C [16] 35.4% | viability, T/C [17] 76.7% | viability, T/C [18] 67.1% | viability, T/C [19] 52% | viability, T/C [20] 39.9% | viability, T/C [21] 40.5% | viability, T/C [22] 30.3% | viability, T/C [23] 63.1% | viability, T/C [24] 54% | viability, T/C [25] 45.9% | viability, T/C [26] 34.8% | viability, T/C [27] 31.9% | viability, T/C [28] 23.1% | viability, T/C (second compound 3.16 µM, first compound 0.0316 µM) 47.4% | viability, T/C (second compound 3.16 µM, first compound 0.1 µM) 38.3% | viability, T/C (second compound 3.16 µM, first compound 0.316 µM) 30.3% | viability, T/C (second compound 3.16 µM, first compound 1 µM) 23.9% | viability, T/C (second compound 3.16 µM, first compound 3.16 µM) 22% | viability, T/C (second compound 3.16 µM, first compound 10 µM) 16.9% | viability, T/C (second compound 10 µM, first compound 0.0316 µM) 33.8% | viability, T/C (second compound 10 µM, first compound 0.1 µM) 22.1% | viability, T/C (second compound 10 µM, first compound 0.316 µM) 17.1% | viability, T/C (second compound 10 µM, first compound 1 µM) 13.6% | viability, T/C (second compound 10 µM, first compound 3.16 µM) 12% | viability, T/C (second compound 10 µM, first compound 10 µM) 10.9%
6.03: pIC50 [2]

O=C(c1ccc(F)c(F)c1Nc1ccc(I)cc1F)N1CC(O)([C@@H]2CCCCN2)C1
inactive: viability, T/C (compound 0.00316 µM) 96.2% [middle of 4 runs] | viability, T/C (compound 0.0316 µM) 63.3% [middle of 4 runs] | viability, T/C (compound 0.1 µM) 50.1% [middle of 4 runs] | viability, T/C (compound 0.316 µM) 23.3% [middle of 4 runs]
active: viability, T/C (compound 1 µM) 6.95% [middle of 4 runs]
77.1 nM [middle of 4 runs]: IC50 (curve of compound)

C[C@@H](NC(=O)c1ncnc(N)c1Cl)c1ncc(C(=O)Nc2cc(C(F)(F)F)c(Cl)cn2)s1
< 5.00: pIC50 (curve of compound)
inactive: viability, T/C (compound 0.0316 µM) 105% [middle of 4 runs] | viability, T/C (compound 0.1 µM) 108% [middle of 4 runs] | viability, T/C (compound 0.316 µM) 115% and 99.1% and 103% (2×) | viability, T/C (compound 1 µM) 113% [middle of 4 runs] | viability, T/C (compound 3.16 µM) 99.6% [middle of 4 runs] | viability, T/C (compound 10 µM) 73.2% (2×) and 69.3% and 73.6%

Cc1nc(N2CCC3(CC2)COC(C)C3N)c(CO)nc1Sc1ccnc(N)c1Cl (stereo unspecified)
inactive: viability, T/C (compound 0.0316 µM) 87% [middle of 4 runs] | viability, T/C (compound 0.1 µM) 85.2% [middle of 4 runs] | viability, T/C (compound 0.316 µM) 73.3% [middle of 4 runs] | viability, T/C (compound 1 µM) 76.3% [middle of 4 runs] | viability, T/C (compound 3.16 µM) 65.7% [middle of 4 runs] | viability, T/C (compound 10 µM) 59.8% [middle of 4 runs]
< 5.00: pIC50 (curve of compound)

CC(Nc1ccc2c(c1)OCCn1cc(N3C(=O)OCC3C(F)F)nc1-2)C(N)=O (stereo unspecified) + C=CC(=O)N1CCN(c2nc(OCC3CCCN3C)nc3c(F)c(-c4nc(N)cc(C)c4C(F)(F)F)c(Cl)cc23)C(C)C1
inactive: viability, T/C (second compound 0.00316 µM, first compound 0.0316 µM) 89.6% | viability, T/C (second compound 0.00316 µM, first compound 0.1 µM) 68.5% | viability, T/C (second compound 0.00316 µM, first compound 0.316 µM) 62.4% | viability, T/C (second compound 0.00316 µM, first compound 1 µM) 54.2% | viability, T/C (second compound 0.00316 µM, first compound 3.16 µM) 46.8% | viability, T/C (second compound 0.00316 µM, first compound 10 µM) 36.2% | viability, T/C (second compound 0.01 µM, first compound 0.0316 µM) 95.5% | viability, T/C (second compound 0.01 µM, first compound 0.1 µM) 75.5% | viability, T/C (second compound 0.01 µM, first compound 0.316 µM) 56.5% | viability, T/C (second compound 0.01 µM, first compound 1 µM) 50.2% | viability, T/C (second compound 0.01 µM, first compound 3.16 µM) 43.5% | viability, T/C (second compound 0.01 µM, first compound 10 µM) 41.1% | viability, T/C [5] 90.7% | viability, T/C [6] 76.7% | viability, T/C [7] 65.2% | viability, T/C [8] 51.2% | viability, T/C [9] 47% | viability, T/C [10] 38.4% | viability, T/C [11] 85.2% | viability, T/C [12] 71% | viability, T/C [13] 64.3% | viability, T/C [14] 50.4% | viability, T/C [15] 49.6% | viability, T/C [16] 43.3% | viability, T/C [17] 87.2% | viability, T/C [18] 73.2% | viability, T/C [19] 66.2% | viability, T/C [20] 55.9% | viability, T/C [21] 50.8% | viability, T/C [22] 44.4% | viability, T/C [23] 85.6% | viability, T/C [24] 71% | viability, T/C [25] 68% | viability, T/C [26] 52% | viability, T/C [27] 47.8% | viability, T/C [28] 40.8%
5.69: pIC50 [4]
5.83: pIC50 (curve of first compound, second compound 0.00316 µM)
6.08: pIC50 (curve of first compound, second compound 0.01 µM)
5.80: pIC50 [1]
5.70: pIC50 [2]
5.50: pIC50 [3]
